Reference: patent US6506893B1, “Polynucleotides and their use for detecting resistance to streptogramin A or to streptogramin B and related compounds” (priority 1997, dated 2003)

Assays:
[1] = test system: Staphylococci resistant to synergistic mixtures of A and B compounds; conditions: Allignet et al., 1996; cited from earlier work
[2] = test system: S. aureus recipient RN4220 transformants with pIP1717; experiment: MIC by serial twofold dilutions in MHA, S. aureus RN4220 transformants carrying pIP1717 (vgaB); format: cell-based; conditions: Staphylococcus aureus; S. aureus RN4220 transformants with pIP1717 (2.4 kb HindIII-HaeIII fragment carrying vgaB), selected on 10 μg/ml erythromycin; read-out: PIIA MICs
Excerpt: First, the 2.4 kb HindIII-HaeIII fragment of pIP 1675, which contains only 10 nucleotide from vatB, was inserted into plasmid pOX300, and the recombinant plasmid, pIP1717 (FIG. 1B), was introduced by electroporation into the S. aureus recipient, RN4220 (Kreiswirth et al., 1983). Plasmid pOX300, also named pOX7, (Dyke and Curnock, 1989), is a hybrid of pUC18 and pE194ts and replicates in E. coli where it confers resistance to ampicillin and to erythromycin, and in S. aureus where only resistance to erythromycin is expressed. The S. aureus transformants selected on 10 μg/ml erythromycin were resistant to streptogramin A and related compounds (PIIA MICs=8-16 μg/ml). Thus, the 2.4-kb HindIII-HaeIII insert of pIP1717 (FIG. 1B) probably carried a streptogramin A resistance gene and was sequenced. The nucleotide (nucleotide) sequence of this fragment was determined by the dideoxy method (Sanger et al., 1977) with the reagents and the procedure recommended by the suppliers of the T^7 sequencing kit (Pharmacia International). Arrows indicate the direction and extent of each dideoxy-sequencing reaction. (FIG. 1B).
(§1) Minimal inhibitory concentrations (MICs) of antibiotics were determined by serial twofold dilutions of antibiotics in MHA (Ericson H. M. and S. C. Sherris, ActaPathol. Microbiol. Scand., 1971, Suppl. 217:Section B).

[3] = test system: S. aureus recipient strain RN4220 transformant harboring pIP1714; experiment: Susceptibility to antimicrobial agents, S. aureus RN4220 transformant harboring pIP1714 (vatC, vgbB); format: cell-based, Staphylococcus aureus; conditions: RN4220 transformant with pIP1714, selected on BHIA with 10 μg/ml pristinamycin IIA
Method: The strain BM10711 harbored several plasmids including pIP1714 (5kb). This plasmid was […] by electroporation in a S. aureus recipient strain, RN4220. The transformant, harboring pIP1714, was selected on BHIA containing 10 μg/ml pristinamycin IIA.
Susceptibility to antimicrobial agents was determined with a disk diffusion assay and commercially available disks (Diagnostic Pasteur). Additional disks prepared in our laboratory contained streptogramin A (20 μg) or streptogramin B (40 μg).
as §1

Molecule	MIC [1] [µg/mL]	MIC [2] [µg/mL]	resistance conferred by plasmid [3]
CC1=C\[C@@H](O)CC(=O)Cc2nc(co2)C(=O)N2CCC=C2C(=O)O[C@H](C(C)C)[C@H](C)/C=C/C(=O)NC\C=C\1 [PIIA, pristinamycin IIA]	≥ 8	8 to 16	–
streptogramin A	–	–	resistances
streptogramin B	–	–	resistances
